Measured values taken from patent US9718840B2, “Condensed 5-oxazolidinone derivative” (SUMITOMO DAINIPPON PHARMA CO., LTD., priority 2014, dated 2017).

Key:
[1] = tested on: Cynomolgus monkey plasma; experiment: Species difference test: aPTT prolongation in plasma; type: biochemical
Method: (§1) The compound of Reference Example 2-6 dissolved in DMSO was added at final concentrations of 0.03 to 200 μmol/L to the plasma of each animal species prepared using 3.2% sodium citrate. The solution was incubated at 37° C. for 6 minutes. Then, an STA reagent Cephascreen (for aPTT assay; manufactured by Roche Diagnostics K.K.) was added thereto in an amount equal to the total amount of the plasma and the DMSO solution, and the mixture was further incubated for 4 minutes. Then, STA calcium chloride (manufactured by Roche Diagnostics K.K.) was added thereto in an amount equal to the total amount of the plasma and the DMSO solution, and the time required for coagulation was measured. The concentration at which the coagulation time was prolonged two times (EC2x) was calculated for each plasma.

[2] = tested on: Dog plasma; experiment: as above; type: biochemical
Method: as §1

[3] = tested on: Mouse plasma; experiment: as above; type: biochemical
Method: as §1

[4] = tested on: Rabbit plasma; experiment: as above; type: biochemical
Method: as §1

[5] = tested on: Rat plasma; experiment: as above; type: biochemical
Method: as §1

[6] = tested on: human plasma; experiment: as above; type: biochemical
Method: as §1

[7] = target: T1, human thrombin (Homo sapiens, UniProt P00734); experiment: Enzyme selectivity evaluation test: thrombin; type: biochemical
T1 construct: human thrombin (manufactured by Enzyme Research Laboratories); purchased Enzyme Research Laboratories
Method: S-2366 (pyroGlu-Pro-Arg-pNA.HCl) was added as the substrate at a final concentration of 300 μmol/L. After progression of the reaction, the absorbance was measured at OD 405 nm.

[8] = target: T2, Tissue Factor (TF):Factor VIIa (FVIIa) Complex (Homo sapiens, UniProt P08709); experiment: Enzyme selectivity evaluation test: TF:FVIIa complex; type: biochemical
T2 construct: Human FVIIa (manufactured by Enzyme Research Laboratories); purchased Enzyme Research Laboratories (FVIIa); R&D Systems, Inc. (TF)
T2 sequence (P08709 213-466 limits assumed): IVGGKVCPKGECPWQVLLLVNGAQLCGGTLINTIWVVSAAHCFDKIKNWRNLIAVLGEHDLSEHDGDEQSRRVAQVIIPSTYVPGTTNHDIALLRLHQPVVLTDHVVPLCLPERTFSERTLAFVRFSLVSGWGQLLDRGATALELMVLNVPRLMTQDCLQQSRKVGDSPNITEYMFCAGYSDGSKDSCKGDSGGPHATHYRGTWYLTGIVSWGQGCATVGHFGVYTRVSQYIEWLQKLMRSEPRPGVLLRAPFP
T2 sequence (P08709 61-212 partner limits assumed): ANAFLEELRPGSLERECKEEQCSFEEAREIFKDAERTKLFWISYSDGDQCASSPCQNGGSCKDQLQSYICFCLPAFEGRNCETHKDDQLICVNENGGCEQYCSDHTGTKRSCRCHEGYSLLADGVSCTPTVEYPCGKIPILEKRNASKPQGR
T2 sequence (P13726 33-251 partner limits assumed): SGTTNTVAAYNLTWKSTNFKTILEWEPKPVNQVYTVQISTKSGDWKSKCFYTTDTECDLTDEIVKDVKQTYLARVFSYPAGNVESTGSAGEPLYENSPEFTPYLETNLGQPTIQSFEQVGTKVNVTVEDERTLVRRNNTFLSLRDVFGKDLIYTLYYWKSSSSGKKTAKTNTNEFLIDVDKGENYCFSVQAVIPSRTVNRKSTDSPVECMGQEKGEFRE
Method: S-2288 (H-D-Ile-Pro-Arg-pNA.2HCl) (manufactured by Chromogenix) was added as the substrate at a final concentration of 300 μmol/L. After progression of the reaction, the absorbance was measured at OD 405 nm.

[9] = target: T3, Human urokinase (Homo sapiens, UniProt P00749); experiment: Enzyme selectivity evaluation test: urokinase; type: biochemical
T3 construct: purchased Calbiochem
Method: S-2444 (pyroGlu-Gly-Arg-pNA.HCl) was added as the substrate at a final concentration of 300 μmol/L. After progression of the reaction, the absorbance was measured at OD 405 nm.

[10] = target: T4, Human t-PA (Homo sapiens, UniProt P00750); experiment: Enzyme selectivity evaluation test: t-PA; type: biochemical
T4 construct: purchased Calbiochem
T4 sequence (P00750 36-562): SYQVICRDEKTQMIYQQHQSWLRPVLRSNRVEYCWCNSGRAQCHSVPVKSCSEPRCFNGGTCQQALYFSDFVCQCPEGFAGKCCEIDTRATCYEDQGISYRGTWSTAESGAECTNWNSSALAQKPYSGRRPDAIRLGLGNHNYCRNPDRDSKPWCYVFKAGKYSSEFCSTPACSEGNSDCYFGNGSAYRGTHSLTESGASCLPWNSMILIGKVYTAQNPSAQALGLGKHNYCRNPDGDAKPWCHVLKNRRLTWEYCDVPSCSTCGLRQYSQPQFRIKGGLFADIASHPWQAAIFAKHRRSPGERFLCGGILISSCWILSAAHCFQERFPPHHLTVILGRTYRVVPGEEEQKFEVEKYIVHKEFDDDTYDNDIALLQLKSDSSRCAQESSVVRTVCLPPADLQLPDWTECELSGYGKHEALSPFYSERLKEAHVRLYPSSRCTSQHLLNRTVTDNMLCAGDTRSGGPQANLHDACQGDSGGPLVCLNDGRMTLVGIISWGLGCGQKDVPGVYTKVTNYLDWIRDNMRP
Method: S-2288 (H-D-Ile-Pro-Arg-pNA.2HCl) was added as the substrate at a final concentration of 300 μmol/L. After progression of the reaction, the absorbance was measured at OD 405 nm.

[11] = Dog PK test (Test Example 7); type: in vivo; conditions: plasma, 1 mg/kg, male beagle, intravenous, 1 mg/2 mL/kg, read-out: AUC from 0 hours to 24 hours (compound of Reference Example 2-6 in plasma)
Method: The compound of Reference Example 2-6 was dissolved in a mixed solution of saline/0.1 N HCl=9/1, and this solution was intravenously administered at a dose of 1 mg/2 mL/kg to a male beagle. Blood collection was carried out 0.25, 0.5, 1, 2, 4, 6, and 24 hours after administration. 2 mL of blood was collected using a syringe packed with 20 μL of Novo-Heparin Injection, transferred to a centrifugal tube cooled in ice, and centrifuged at 3000 rpm at 4° C. for 10 minutes to prepare plasma. 200 μL of the prepared plasma was added to a tube containing 600 μL of acetonitrile and mixed for approximately 10 seconds using a vortex mixer. Then, the concentration of the compound of Reference Example 2-6 was measured.
The compound of Example 1 was dissolved in a 0.5% aqueous methylcellulose solution, and this solution was orally administered at a dose of 5 mg/5 mL/kg to a male beagle fasted for 16 hours. Blood collection was carried out 0.5, 1, 2, 4, 6, and 24 hours after administration. 2 mL of blood was collected using a syringe packed with 20 μL of Novo-Heparin Injection, transferred to a centrifugal tube cooled in ice, and centrifuged at 3000 rpm at 4° C. for 10 minutes to prepare plasma. […] Then, the concentration of the compound of Reference Example 2-6 was measured.

[12] = tested on: Rabbit venous thrombus models; experiment: Effect of combined use with antiplatelet drug using rabbit AVST model; type: in vivo; conditions: alone
Method: Rabbit venous thrombus models were prepared by a modification of the report of Wong et al. (Wong P C. et al., J. Pharmacol. Exp. Ther. 292: 351-357 (2000)). […] A tracheostomy tube was inserted to each rabbit, which was then ventilated using a respirator. For the intravenous administration of a test drug and blood collection, catheters were inserted to the right femoral vein and the right femoral artery, respectively. An arteriovenous shunt filled with saline was inserted to the carotid artery and the jugular vein. […] Also, 4-0 silk thread having a length of 5 cm was indwelled in the arteriovenous shunt. Blood was sent for 30 minutes from the carotid artery to the jugular vein via the arteriovenous shunt. The shunt was removed, and the weight of the silk thread covered with thrombus was measured. The weight of the silk thread measured before the experiment was subtracted from the measured weight, and the obtained value was used as a wet thrombus weight. One hour before the open of the arteriovenous shunt, the test drug or a vehicle was promptly intravenously administered (0.67 mL/kg) and then continuously intravenously administered (1 mL/kg/hr). The continuous injection was continued throughout the experiment. […] STA calcium chloride (manufactured by Roche Diagnostics K.K.) was added in an amount equal thereto, and the time required for coagulation was measured.

[13] = target: Human FXIa (Homo sapiens, UniProt P03951); experiment: In vitro activated factor XI (FXIa) inhibition test; type: biochemical; parameters: purchased Enzyme Research Laboratories; conditions: substrate S-2366, 37° C., 10 minutes; read-out: FXIa Inhibition activity IC50
Human FXIa, sequence (P03951 388-625 limits assumed): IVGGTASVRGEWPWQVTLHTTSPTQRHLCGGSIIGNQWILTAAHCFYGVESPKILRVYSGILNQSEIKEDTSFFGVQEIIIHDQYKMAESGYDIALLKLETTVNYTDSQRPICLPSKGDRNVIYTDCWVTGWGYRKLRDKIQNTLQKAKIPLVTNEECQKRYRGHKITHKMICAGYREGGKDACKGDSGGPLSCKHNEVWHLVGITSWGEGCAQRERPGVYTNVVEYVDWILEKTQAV
Human FXIa, sequence (P03951 19-387 partner limits assumed): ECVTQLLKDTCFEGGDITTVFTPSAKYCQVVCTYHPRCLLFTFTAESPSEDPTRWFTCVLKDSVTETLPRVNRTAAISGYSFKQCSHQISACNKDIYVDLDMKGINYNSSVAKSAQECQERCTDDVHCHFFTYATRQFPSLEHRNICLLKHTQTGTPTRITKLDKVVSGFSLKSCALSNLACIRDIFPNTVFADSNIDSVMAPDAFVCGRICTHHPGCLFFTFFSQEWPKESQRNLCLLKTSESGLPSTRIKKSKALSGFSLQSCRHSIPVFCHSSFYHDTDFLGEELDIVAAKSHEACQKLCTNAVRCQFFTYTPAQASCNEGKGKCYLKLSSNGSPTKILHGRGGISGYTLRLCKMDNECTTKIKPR

[14] = dose 0.5 + 0.75 mg/kg + mg/kg/h i.v.
[15] = dose 1.5 + 2.25 mg/kg + mg/kg/h i.v.

## Cl.N[C@H](CF)[C@H]1CC[C@H](C(=O)N2CC[C@@H](C3CCCCC3)[C@H]2C(=O)Nc2ccc3[nH]c(C(=O)O)cc3c2)CC1 [Reference Example 2-6, 5-{[(3S)-1-({trans-4-[(1S)-1-Amino-2-fluoroethyl]cyclohexyl}carbonyl)-3-cyclohexyl-L-prolyl]amino}-1H-indole-2-carboxylic acid hydrochloride]
[1]
  EC2x (concentration at which the coagulation time was prolonged two times): 2.6 µM
[2]
  EC2x (concentration at which the coagulation time was prolonged two times): 34.4 µM
[3]
  EC2x (concentration at which the coagulation time was prolonged two times): >200 µM
[4]
  EC2x (concentration at which the coagulation time was prolonged two times): 34.2 µM
[5]
  EC2x (concentration at which the coagulation time was prolonged two times): >200 µM
[6]
  EC2x (concentration at which the coagulation time was prolonged two times): 0.6 µM
[7]
  IC50: > 10 µM
[8]
  IC50: > 10 µM
[9]
  IC50: > 10 µM
[10]
  IC50: > 10 µM
[11]
  AUC: 5220 ng·h/mL
[12]; [14]
  PT (ratio): 1.00 ± 0.02 ratio
  Thrombus weight: 66 ± 22 mg
  aPTT (ratio): 1.59 ± 0.15 ratio
[12]; [15]
  PT (ratio): 1.01 ± 0.00 ratio
  Thrombus weight: 36 ± 6 mg
  aPTT (ratio): 1.84 ± 0.10 ratio
[13]
  IC50: 0.006 µM
